Laboratory results published in ChEMBL document CHEMBL3880390, “Agents for preventing and treating disorders involving modulation of the RYR receptors” (2014).
The source made the active and inactive calls. The rule behind the calls is not given here.

Columns and labels:
hERG (KCNH2) [1] = target: T1, hERG (KCNH2) (Homo sapiens, UniProt Q12809); assay: Inhibition of human ERG expressed in HEK293 cells at 0.01 uM after 5 mins at -80 mV holding potential by patch clamp assay; type: cell-based; conditions: HEK293 cells expressing human ERG
hERG (KCNH2) [2] = target: T1, hERG (KCNH2); assay: Inhibition of human ERG expressed in HEK293 cells at 0.1 uM after 5 mins at -80 mV holding potential by patch clamp assay; type: cell-based; conditions: HEK293 cells expressing human ERG
hERG (KCNH2) [3] = target: T1, hERG (KCNH2); assay: Inhibition of human ERG expressed in HEK293 cells at 1 uM after 5 mins at -80 mV holding potential by patch clamp assay; type: cell-based; conditions: HEK293 cells expressing human ERG
hERG (KCNH2) [4] = target: T1, hERG (KCNH2); assay: Inhibition of human ERG expressed in HEK293 cells at 10 uM after 5 mins at -80 mV holding potential by patch clamp assay; type: cell-based; conditions: HEK293 cells expressing human ERG
Ryanodine receptor 2 [5] = target: T2, Ryanodine receptor 2 (Homo sapiens, UniProt Q92736); assay: Induction of FKBP12.6 re-binding to PKA-phosphorylated-RyR2 (unknown origin) after 30 mins in presence of [35S]-FKBP12.6 by liquid scintillation counting
T2 sequence (Q92736 whole entry): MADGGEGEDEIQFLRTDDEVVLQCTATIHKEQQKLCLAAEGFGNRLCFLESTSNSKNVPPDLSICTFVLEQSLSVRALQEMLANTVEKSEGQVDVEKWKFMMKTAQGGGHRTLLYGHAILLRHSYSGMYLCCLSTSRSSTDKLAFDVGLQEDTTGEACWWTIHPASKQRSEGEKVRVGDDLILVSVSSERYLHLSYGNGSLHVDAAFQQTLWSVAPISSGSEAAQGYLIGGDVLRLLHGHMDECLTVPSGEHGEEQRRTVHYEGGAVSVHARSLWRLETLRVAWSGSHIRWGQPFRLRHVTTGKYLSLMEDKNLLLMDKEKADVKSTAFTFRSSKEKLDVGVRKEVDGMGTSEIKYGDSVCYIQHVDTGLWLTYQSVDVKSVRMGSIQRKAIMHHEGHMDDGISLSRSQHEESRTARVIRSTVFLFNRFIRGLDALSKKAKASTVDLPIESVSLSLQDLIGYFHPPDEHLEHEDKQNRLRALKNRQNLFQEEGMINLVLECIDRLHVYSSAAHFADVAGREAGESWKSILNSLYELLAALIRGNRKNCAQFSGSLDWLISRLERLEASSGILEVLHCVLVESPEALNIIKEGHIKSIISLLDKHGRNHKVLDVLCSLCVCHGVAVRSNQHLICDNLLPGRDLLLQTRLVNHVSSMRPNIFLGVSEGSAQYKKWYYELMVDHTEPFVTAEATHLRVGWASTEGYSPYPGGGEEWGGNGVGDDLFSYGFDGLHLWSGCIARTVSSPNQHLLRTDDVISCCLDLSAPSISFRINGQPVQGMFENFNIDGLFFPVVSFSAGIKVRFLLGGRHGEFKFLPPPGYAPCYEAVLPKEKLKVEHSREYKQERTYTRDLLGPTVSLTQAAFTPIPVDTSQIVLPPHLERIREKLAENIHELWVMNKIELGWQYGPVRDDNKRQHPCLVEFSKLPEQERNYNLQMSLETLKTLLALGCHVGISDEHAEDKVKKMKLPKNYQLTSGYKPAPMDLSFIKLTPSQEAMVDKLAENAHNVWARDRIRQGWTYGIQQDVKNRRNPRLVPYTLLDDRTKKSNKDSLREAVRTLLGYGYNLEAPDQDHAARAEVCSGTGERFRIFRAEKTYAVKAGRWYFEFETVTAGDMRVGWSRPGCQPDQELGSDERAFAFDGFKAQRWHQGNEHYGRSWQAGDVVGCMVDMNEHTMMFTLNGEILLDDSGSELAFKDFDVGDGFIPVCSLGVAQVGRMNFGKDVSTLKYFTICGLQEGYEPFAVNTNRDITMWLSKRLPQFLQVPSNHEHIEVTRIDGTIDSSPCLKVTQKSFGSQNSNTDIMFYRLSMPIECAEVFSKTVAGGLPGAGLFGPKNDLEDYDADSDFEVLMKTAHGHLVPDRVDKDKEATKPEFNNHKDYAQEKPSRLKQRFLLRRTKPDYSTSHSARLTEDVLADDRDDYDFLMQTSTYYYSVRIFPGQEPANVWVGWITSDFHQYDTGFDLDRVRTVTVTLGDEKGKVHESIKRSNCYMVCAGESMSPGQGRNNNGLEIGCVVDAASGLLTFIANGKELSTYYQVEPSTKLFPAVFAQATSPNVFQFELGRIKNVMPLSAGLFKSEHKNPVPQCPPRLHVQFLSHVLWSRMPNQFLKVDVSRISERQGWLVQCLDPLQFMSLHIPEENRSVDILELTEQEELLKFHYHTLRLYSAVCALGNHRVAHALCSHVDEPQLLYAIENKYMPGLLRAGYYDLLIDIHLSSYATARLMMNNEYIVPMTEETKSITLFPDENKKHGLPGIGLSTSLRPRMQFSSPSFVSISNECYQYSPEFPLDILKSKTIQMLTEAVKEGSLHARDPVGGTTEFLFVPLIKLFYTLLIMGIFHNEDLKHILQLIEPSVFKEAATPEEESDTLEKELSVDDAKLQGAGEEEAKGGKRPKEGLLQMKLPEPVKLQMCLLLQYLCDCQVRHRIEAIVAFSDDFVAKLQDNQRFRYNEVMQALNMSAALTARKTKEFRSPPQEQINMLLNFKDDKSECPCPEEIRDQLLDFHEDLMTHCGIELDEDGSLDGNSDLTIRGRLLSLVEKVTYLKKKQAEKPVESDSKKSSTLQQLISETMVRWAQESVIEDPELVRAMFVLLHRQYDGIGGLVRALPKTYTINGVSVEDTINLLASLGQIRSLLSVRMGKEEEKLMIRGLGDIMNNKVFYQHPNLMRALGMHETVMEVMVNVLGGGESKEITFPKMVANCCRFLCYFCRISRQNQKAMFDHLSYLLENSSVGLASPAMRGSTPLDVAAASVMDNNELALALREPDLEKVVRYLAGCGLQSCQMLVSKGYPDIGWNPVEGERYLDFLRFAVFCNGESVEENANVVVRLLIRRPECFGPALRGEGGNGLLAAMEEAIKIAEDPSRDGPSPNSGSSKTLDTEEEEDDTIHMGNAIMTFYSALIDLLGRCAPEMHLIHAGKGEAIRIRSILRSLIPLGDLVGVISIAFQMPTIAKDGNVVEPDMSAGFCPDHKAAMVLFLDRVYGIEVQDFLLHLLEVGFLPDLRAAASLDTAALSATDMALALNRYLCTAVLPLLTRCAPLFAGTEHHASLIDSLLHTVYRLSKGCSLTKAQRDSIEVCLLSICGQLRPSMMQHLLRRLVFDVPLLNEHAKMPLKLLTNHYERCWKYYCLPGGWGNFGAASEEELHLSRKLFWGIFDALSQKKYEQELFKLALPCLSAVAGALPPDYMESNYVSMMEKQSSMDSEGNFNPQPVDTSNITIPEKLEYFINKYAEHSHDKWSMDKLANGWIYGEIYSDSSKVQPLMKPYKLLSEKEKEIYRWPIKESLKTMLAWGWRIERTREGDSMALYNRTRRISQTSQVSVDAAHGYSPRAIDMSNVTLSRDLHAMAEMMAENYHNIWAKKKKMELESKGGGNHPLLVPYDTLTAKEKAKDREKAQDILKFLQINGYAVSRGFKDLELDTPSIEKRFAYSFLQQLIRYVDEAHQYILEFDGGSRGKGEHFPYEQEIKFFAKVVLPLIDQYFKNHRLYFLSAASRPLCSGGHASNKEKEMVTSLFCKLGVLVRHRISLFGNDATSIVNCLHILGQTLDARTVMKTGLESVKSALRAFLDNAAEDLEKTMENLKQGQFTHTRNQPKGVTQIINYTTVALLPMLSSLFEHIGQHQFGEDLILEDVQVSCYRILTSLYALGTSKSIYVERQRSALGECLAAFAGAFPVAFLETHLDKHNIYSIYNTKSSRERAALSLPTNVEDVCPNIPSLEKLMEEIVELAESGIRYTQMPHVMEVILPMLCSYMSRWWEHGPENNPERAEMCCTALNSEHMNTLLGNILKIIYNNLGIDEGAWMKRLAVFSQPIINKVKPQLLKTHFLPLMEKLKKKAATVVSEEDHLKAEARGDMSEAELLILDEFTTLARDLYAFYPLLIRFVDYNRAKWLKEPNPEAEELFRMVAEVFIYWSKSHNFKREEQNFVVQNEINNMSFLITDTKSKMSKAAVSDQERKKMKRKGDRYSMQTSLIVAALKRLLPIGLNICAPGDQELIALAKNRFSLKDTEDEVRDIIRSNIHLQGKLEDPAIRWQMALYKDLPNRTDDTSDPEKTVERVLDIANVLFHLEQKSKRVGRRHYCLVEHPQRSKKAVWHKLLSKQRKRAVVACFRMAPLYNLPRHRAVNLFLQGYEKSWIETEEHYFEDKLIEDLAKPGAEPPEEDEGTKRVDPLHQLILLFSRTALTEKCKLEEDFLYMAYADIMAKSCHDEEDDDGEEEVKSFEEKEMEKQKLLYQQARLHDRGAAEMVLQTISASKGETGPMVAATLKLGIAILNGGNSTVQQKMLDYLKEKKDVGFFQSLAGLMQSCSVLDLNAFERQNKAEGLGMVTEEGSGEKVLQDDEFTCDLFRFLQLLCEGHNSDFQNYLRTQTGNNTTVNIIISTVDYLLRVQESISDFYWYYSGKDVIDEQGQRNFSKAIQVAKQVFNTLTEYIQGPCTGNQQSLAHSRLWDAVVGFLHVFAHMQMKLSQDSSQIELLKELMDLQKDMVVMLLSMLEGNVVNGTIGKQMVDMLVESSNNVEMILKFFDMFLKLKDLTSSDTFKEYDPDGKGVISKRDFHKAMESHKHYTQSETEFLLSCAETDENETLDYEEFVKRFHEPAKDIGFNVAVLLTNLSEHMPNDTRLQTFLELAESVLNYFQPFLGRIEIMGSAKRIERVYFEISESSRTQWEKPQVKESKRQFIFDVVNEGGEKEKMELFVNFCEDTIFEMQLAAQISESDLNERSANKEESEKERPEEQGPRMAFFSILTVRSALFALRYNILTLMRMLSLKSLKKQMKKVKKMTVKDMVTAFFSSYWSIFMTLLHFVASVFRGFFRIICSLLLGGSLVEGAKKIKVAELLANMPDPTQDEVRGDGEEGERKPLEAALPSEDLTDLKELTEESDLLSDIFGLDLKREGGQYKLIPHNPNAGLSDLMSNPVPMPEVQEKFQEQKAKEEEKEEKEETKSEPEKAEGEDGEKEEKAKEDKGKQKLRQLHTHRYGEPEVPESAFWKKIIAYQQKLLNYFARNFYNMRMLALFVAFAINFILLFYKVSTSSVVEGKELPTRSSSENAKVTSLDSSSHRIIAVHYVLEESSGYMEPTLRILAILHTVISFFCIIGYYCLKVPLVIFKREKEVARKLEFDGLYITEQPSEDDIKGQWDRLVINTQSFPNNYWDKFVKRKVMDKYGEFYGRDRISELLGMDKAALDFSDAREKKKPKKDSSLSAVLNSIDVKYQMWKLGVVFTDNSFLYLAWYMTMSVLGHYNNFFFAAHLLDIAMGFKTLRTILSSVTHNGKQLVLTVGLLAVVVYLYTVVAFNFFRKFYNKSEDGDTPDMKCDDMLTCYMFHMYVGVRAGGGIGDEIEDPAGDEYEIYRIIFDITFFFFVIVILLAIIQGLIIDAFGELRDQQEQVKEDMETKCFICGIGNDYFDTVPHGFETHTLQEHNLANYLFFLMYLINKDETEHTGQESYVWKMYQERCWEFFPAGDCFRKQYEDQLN

Ryanodine receptor 2 [6] = target: T2, Ryanodine receptor 2; assay: Induction of FKBP12.6 re-binding to PKA-phosphorylated-RyR2 (unknown origin) at 10 to 1000 nM after 30 mins in presence of [35S]-FKBP12.6 by liquid scintillation counting
Mus musculus [7] = assay: Antiarrhythmic activity in haploinsufficient FKBP12.6 expressing mouse assessed as plasma concentration showing prevention of sudden cardiac death dosed via osmotic mini-pump under testing exercise followed by epinephrine injection relative to control; type: functional, organism-based
Mus musculus [8] = assay: Antiarrhythmic activity in haploinsufficient FKBP12.6 expressing mouse assessed as plasma concentration showing prevention of cardiac arrhythmias dosed via osmotic mini-pump under testing exercise followed by epinephrine injection relative to control; type: functional, organism-based
Mus musculus [9] = species on record: Mus musculus; assay: Induction of cardiac function improvement in myocardial infarction-induced acute heart failure mouse model at plasma concentration 200 nM after 7 days post myocardial infarction; type: functional
Mus musculus [10] = species on record: Mus musculus; assay: Induction of cardiac function improvement in myocardial infarction-induced acute heart failure mouse model subjected to permanent ligation of left anterior descending coronary artery assessed as increase in fractional shortening at plasma concentration of 100 to 200 nM after 2 weeks post myocardial infarction by echocardiography; type: functional
Mus musculus [11] = species on record: Mus musculus; assay: Induction of cardiac function improvement in myocardial infarction-induced acute heart failure mouse model subjected to permanent ligation of left anterior descending coronary artery assessed as increase in cardiac contractility at plasma concentration 200 nM after 7 days post myocardial infarction; type: functional
Ryanodine receptor 2 [12] = target: T2, Ryanodine receptor 2; assay: Induction of normalization of single channel closed state of PKA phosphorylated RyR2 P2328S mutant (unknown origin) assessed as channel open probability level at 0.1 umol/L (reference value: 14.4%)
Ryanodine receptor 2 [13] = target: T2, Ryanodine receptor 2; assay: Induction of normalization of single channel closed state of wild type PKA phosphorylated RyR2 (unknown origin) assessed as channel open probability at 0.1 umol/L relative to control
Mus musculus [14] = species on record: Mus musculus; assay: Antiarrhythmic activity in haploinsufficient FKBP12.6 expressing mouse assessed as reduction in sustained ventricular tachycardia at 0.2 to 1 uM under testing exercise followed by epinephrine injection relative to control; type: functional
Ryanodine receptor 2 [15] = target: T2, Ryanodine receptor 2; assay: Induction of calstabin-2 binding to RyR2 P2328S mutant (unknown origin) at 0.1 umol/L
[16] = Cardiotoxicity in FKBP12.6 deficient mouse implanted with osmotic mini-pump assessed as reduction in resting heart rate in at 0.5 mg/kg/hr for 7 hrs; type: toxicity, organism-based; conditions: in vivo
[17] = Cardiotoxicity in haploinsufficient FKBP12.6 expressing mouse implanted with osmotic mini-pump assessed as reduction in resting heart rate in at 0.5 mg/kg/hr for 7 hrs; type: toxicity, organism-based; conditions: in vivo
Mus musculus [18] = assay: Reduction in PKA-phosphorylation of RyR2 in myocardial infarction-induced heart failure mouse model at 0.5 mg/kg/hr after 28 days post myocardial infarction; type: functional, organism-based
Mus musculus [19] = species on record: Mus musculus; assay: Reduction in RyR2 channel opening probability in haploinsufficient FKBP12.6+/- mouse in the presence of […]; type: functional
[20] = target: Ryanodine receptor 1 (Mus musculus) (UniProt E9PZQ0); assay: Induction of normalization of RYR1 function in mdx dystrophin deficient mouse soleus muscle assessed as increase in channel open probability at 1 uM; type: tissue-based
[21] = target: Ryanodine receptor 1 (Mus musculus) (UniProt E9PZQ0); assay: Induction of normalization of RYR1 function in mdx dystrophin deficient mouse soleus muscle assessed as increase in average channel open dwell time at 1 uM; type: tissue-based
[22] = target: Ryanodine receptor 1 (Mus musculus) (UniProt E9PZQ0); assay: Induction of normalization of RYR1 function in mdx dystrophin deficient mouse soleus muscle assessed as decrease in average channel close dwell time at 1 uM; type: tissue-based
Mus musculus [23] = assay: Improvement in soleus muscle fatigability in myocardial infarction-induced heart failure mouse model at 0.5 mg/kg/day relative to control; type: functional, organism-based
Mus musculus [24] = assay: Improvement in soleus muscle fatigability in myocardial infarction-induced heart failure calstabin2-deficient knockout mouse at 0.5 mg/kg/day relative to control; type: functional, organism-based
Mus musculus [25] = species on record: Mus musculus; assay: Antiarrhythmic activity in haploinsufficient FKBP12.6 expressing mouse assessed as reduction in sustained ventricular tachycardia at 1 uM under testing exercise followed by epinephrine injection relative to control; type: functional
[26] = target: Ryanodine receptor 1 (Mus musculus) (UniProt E9PZQ0); assay: Normalization of RYR1 in myocardial infarction-induced heart failure mouse soleus muscle assessed as increase in average channel open dwell time; type: tissue-based
[27] = target: Ryanodine receptor 1 (Mus musculus) (UniProt E9PZQ0); assay: Normalization of RYR1 in myocardial infarction-induced heart failure mouse soleus muscle assessed as decrease in average channel close dwell time; type: tissue-based
[28] = target: Ryanodine receptor 1 (Mus musculus) (UniProt E9PZQ0); assay: Induction of calstabin-1 binding to RyR1 in mouse skeletal muscle at >50 nM
[29] = Cardiotoxicity in haploinsufficient FKBP12.6 expressing mouse assessed as reduction in non-sustained ventricular tachycardia at 1 uM under testing exercise followed by epinephrine injection relative to control; type: toxicity; conditions: in vivo
[30] = target: Ryanodine receptor 1 (Mus musculus) (UniProt E9PZQ0); assay: Induction of calstabin-1 binding to RYR1 in myocardial infarction-induced heart failure wild type mouse soleus muscle at 0.5 mg/kg/day dosed via implantable osmotic minipumps; type: organism-based
[31] = target: Ryanodine receptor 1 (Mus musculus) (UniProt E9PZQ0); assay: Inhibition of PKA-induced RyR1 phosphorylation in myocardial infarction-induced heart failure mouse soleus muscle at 0.5 mg/kg/day dosed via implantable osmotic minipumps; type: organism-based
[32] = target: Ryanodine receptor 1 (Mus musculus) (UniProt E9PZQ0); assay: Induction of calstabin-1 binding to RYR1 in myocardial infarction-induced heart failure calsiabin2-/- mouse soleus muscle at 0.5 mg/kg/day dosed via implantable osmotic minipumps; type: organism-based
[33] = target: Ryanodine receptor 1 (Mus musculus) (UniProt E9PZQ0); assay: Induction of calstabin-2 binding to RyR1 in mouse skeletal muscle at >50 nM
[34] = target: Ryanodine receptor 1 (Mus musculus) (UniProt E9PZQ0); assay: Induction of calstabin-1 binding to PKA-phosphorylated RyR1 in mouse skeletal muscle at >50 nM
[35] = target: Ryanodine receptor 1 (Mus musculus) (UniProt E9PZQ0); assay: Induction of calstabin-2 binding to PKA-phosphorylated RyR1 in mouse skeletal muscle at >50 nM

COc1ccc2c(c1)CN(C(=O)N1CCCCC1)CCS2
inhibition at 5 min, 0.01 µM (hERG (KCNH2) [1]): 1.8% | inhibition at 5 min, 0.1 µM (hERG (KCNH2) [2]): 3.7% | inhibition at 5 min, 1 µM (hERG (KCNH2) [3]): 6.1% | inhibition at 5 min, 10 µM (hERG (KCNH2) [4]): 24.2%

COc1ccc2c(c1)CN(C(=O)c1ccc(N=[N+]=[N-])cc1O)CCS2
inhibition at 5 min, 0.01 µM (hERG (KCNH2) [1]): 1.3% | inhibition at 5 min, 0.1 µM (hERG (KCNH2) [2]): 3.6% | inhibition at 5 min, 1 µM (hERG (KCNH2) [3]): 4.1% | inhibition at 5 min, 10 µM (hERG (KCNH2) [4]): 14%

COc1ccc2c(c1)CN(S(=O)(=O)Nc1cccnc1)CCS2
EC50 (Ryanodine receptor 2 [5]): 77 nM

COc1ccc2c(c1)CN(C(=O)C(=O)O)CCS2
Activity (Ryanodine receptor 2 [6]): Active | Cp (Mus musculus [7]): 0.02 to 1 µM | Cp (Mus musculus [8]): 0.02 to 1 µM | Activity (Mus musculus [9]): Active | Activity (Mus musculus [10]): Active | Activity (Mus musculus [11]): Active | Activity (Ryanodine receptor 2 [12]): 0.3% | Activity (Ryanodine receptor 2 [13]): Active | Activity (Mus musculus [14]): Active | Activity (Ryanodine receptor 2 [15]): Active

COc1ccc2c(c1)CN(C(=O)C(=O)O)CCS2(=O)=O
inhibition at 5 min, 0.01 µM (hERG (KCNH2) [1]): 1.6% | inhibition at 5 min, 0.1 µM (hERG (KCNH2) [2]): 2.5% | inhibition at 5 min, 1 µM (hERG (KCNH2) [3]): 4.6% | inhibition at 5 min, 10 µM (hERG (KCNH2) [4]): 7.4%

COC(=O)C(=O)N1CCSc2ccc(OC)cc2C1
inhibition at 5 min, 0.01 µM (hERG (KCNH2) [1]): 0.2% | inhibition at 5 min, 0.1 µM (hERG (KCNH2) [2]): 7.3% | inhibition at 5 min, 1 µM (hERG (KCNH2) [3]): 2.7% | inhibition at 5 min, 10 µM (hERG (KCNH2) [4]): 13.6%

O=C(N1CCCCC1)N1CCSc2ccccc2C1
inhibition at 5 min, 0.01 µM (hERG (KCNH2) [1]): 2.5% | inhibition at 5 min, 0.1 µM (hERG (KCNH2) [2]): 4.2% | inhibition at 5 min, 1 µM (hERG (KCNH2) [3]): 5.7% | inhibition at 5 min, 10 µM (hERG (KCNH2) [4]): 47.3%

COc1ccc2c(c1)CN(C(=O)CCN1CCC(Cc3ccccc3)CC1)CCS2.Cl
Activity [16]: Non-Toxic | Activity [17]: Non-Toxic | Cp (Mus musculus [7]): 1 µM | Cp (Mus musculus [8]): 1 µM | Activity (Mus musculus [18]): Active | Activity (Mus musculus [19]): Active | Activity [20]: Active | TIME [21]: 4.44e-07 h | TIME [22]: 0.000287 h | Activity (Mus musculus [23]): Active | Activity (Mus musculus [24]): Active | Activity (Mus musculus [25]): Active | TIME [26]: 4.17e-07 to 5e-07 h | TIME [27]: 0.000435 to 0.000441 h | Activity [28]: Active | Activity [29]: Non-Toxic | Activity [30]: Active | inhibition [31]: Active | Activity [32]: Active | Activity [33]: Active | Activity [34]: Active | Activity [35]: Active

COc1ccc2c(c1)CN([P@@](=O)(OC)c1ccccc1)CCS2
EC50 (Ryanodine receptor 2 [5]): 174 nM

O=C(NO)N1CCSc2ccccc2C1
inhibition at 5 min, 0.01 µM (hERG (KCNH2) [1]): 1.9% | inhibition at 5 min, 0.1 µM (hERG (KCNH2) [2]): 4.8% | inhibition at 5 min, 1 µM (hERG (KCNH2) [3]): 1.3% | inhibition at 5 min, 10 µM (hERG (KCNH2) [4]): 9.5%
